Biological target: T1, AVPR1A (Homo sapiens, UniProt P37288)
T1 construct: purchased Promega (in-house HiBiT-GPCR construct library, NanoBRET)
Experiment: NanoBRET screen HiBiT-AVPR1A in HEK293
Format: binding
Procedure: Each tracer candidate was screened across the entire library of HiBiT-GPCR constructs using NanoBRET as the detection modality. As depicted in Figure 4A, the specificity of interactions was evaluated through decrease in BRET due to competitive displacement of a bound tracer by excess parental compound. Each tracer was analyzed for binding to each HiBiT-GPCR fusion in the absence and in the presence of competing parental compound. Briefly, HEK293 cells were transfected with HiBiT-GPCR constructs diluted into promoterless DNA to reduce expression and maximize translocation to the cell surface. Each tracer candidate was then screened at concentrations of 1 μM and 0.1 μM across cells expressing these fusions. Cells were treated for 1.5 h with tracer either alone or in the presence of 20 μM competing parental compound (i.e., control). BRET was measured upon addition of purified LgBiT and subsequent complementation with HiBiT genetically fused to a GPCR. The specificity of interactions was assessed through a decrease in BRET signal due to competitive displacement of the bound tracer. To further gauge the robustness of these interactions, the fold response over the control (i.e., BRETtracer/BRETcontrol) was calculated. We chose a 1.5-fold response, which translates to ≥7-fold signal over noise as the minimal threshold required to score an interaction as positive.
HiBiT-GPCR DNA constructs were diluted in 10 mM Tris pH 8 to a final concentration of 0.01 μg/μL, arrayed in 96-well plates and stored at −20 °C. For transfection, HEK293 cells were suspended in Opti-MEM (without phenol red) supplemented with 2% fetal bovine serum (Seradigm) and 100 units/mL penicillin–streptomycin (Gibco) at a final concentration of 220,000 cells/mL and dispensed into white 96-well plates at 90 μL/well. Subsequent transfections and screens were carried using an Agilent Bravo Automated Liquid Handling Platform. First, the 96-well HiBiT DNA arrays were diluted 25-fold in Opti-MEM (without serum or phenol red) to a final concentration of 0.0004 μg/μL and 20 μL of the diluted DNAs were transferred into new 96-well plates. Next, promoterless carrier DNA (1 μg/μL) was diluted 25-fold (0.04 μg/μL) and then dispensed into the diluted arrays at 20 μL/well. Following brief mixing, Viafect transfection reagent (Promega) diluted 16-fold into Opti-MEM was dispensed into the plates at 40 μL/well. After mixing by pipetting, plates were incubated for 10 min on the pipetting station deck. The DNA-transfection reagent complexes were then added to plates containing cells. To facilitate the screen, 10 μL of DNA-transfection reagent complexes were added in duplicates to the top 4 and bottom 4 rows, resulting in two identical 48-well arrays per plate. Plates with transfected cells were incubated for 18–20 h at 37 °C/5% CO2. A screen of each tracer across the entire library using two different concentrations requires duplicate plates of transfected cells. Depending on the number of tracers being screened, transfections can be scaled up using the same ratios. The next day, for each tracer, four 20× screening solutions in tracer dilution buffer (Promega) were prepared: two duplicates at final concentration of 20 μM and two duplicates at a final concentration of 2 μM. […] The four resulting solutions were diluted 4-fold in Opti-MEM without serum or phenol red to generate 5× solutions (5 µM and 0.5 µM tracer +/− 100 μM competing compound). To screen the library, a BioTek MultiFlo FX liquid dispenser was used to dispense 22.5 µL of tracer solution to the top 4 rows and 22.5 µL tracer + competing compound solution to the 4 bottom rows. Plates were briefly mixed on an orbital shaker and incubated for 1.5 h at room temperature. […] Plates were briefly mixed on an orbital shaker and incubated for 15 min to allow complementation.

T1 sequence (P37288 whole entry): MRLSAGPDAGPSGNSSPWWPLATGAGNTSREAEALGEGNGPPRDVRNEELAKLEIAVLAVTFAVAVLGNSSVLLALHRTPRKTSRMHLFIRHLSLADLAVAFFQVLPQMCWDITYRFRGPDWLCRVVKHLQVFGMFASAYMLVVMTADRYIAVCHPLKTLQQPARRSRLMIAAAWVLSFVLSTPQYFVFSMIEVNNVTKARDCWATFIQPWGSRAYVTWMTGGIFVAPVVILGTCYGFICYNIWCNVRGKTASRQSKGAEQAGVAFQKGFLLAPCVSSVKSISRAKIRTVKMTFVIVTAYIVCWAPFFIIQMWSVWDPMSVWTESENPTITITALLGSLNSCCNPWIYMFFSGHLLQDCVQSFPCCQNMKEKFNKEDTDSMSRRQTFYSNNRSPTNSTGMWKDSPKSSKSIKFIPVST

Row | SMILES | NanoBRET Fold Response (AVPR1A, tracer 0.1μM) | NanoBRET Fold Response (AVPR1A, tracer 1μM) | other results
1 | CCOC(=O)c1cc(C#N)c(N2CCC(C(=O)NS(=O)(=O)Cc3ccccc3/C=C/C(=O)NCCNC(=O)CCc3ccc4n3[B-](F)(F)[N+]3=C(c5ccc[nH]5)C=CC3=C4)CC2)nc1C [AZD1283-1-NB590] | – | – | NanoBRET Fold Response (AVPR1A, 0.1μM): 1.17; NanoBRET Fold Response (AVPR1A, 1μM): 1.06
2 | N#CN=C(NCCCOc1cccc(CN2CCCCC2)c1)NCCNC(=O)CCOCCOCCOCCOCCNC(=O)CCc1ccc2n1[B-](F)(F)[N+]1=C(c3ccc[nH]3)C=CC1=C2 [Aminopotentidine-2-NB590] | 0.93 | 0.97 | –
3 | CN(C)CCC=C1c2ccccc2CCc2ccc(C(=O)NCCNC(=O)CCOCCOCCOCCOCCNC(=O)CCc3ccc4n3[B-](F)(F)[N+]3=C(c5ccc[nH]5)C=CC3=C4)cc21 [Amitriptyline-a-2-NB590] | – | – | NanoBRET Fold Response (tracer at 0.1μM): 0.93; NanoBRET Fold Response (tracer at 1μM): 1.11
4 | CN(C)CCC=C1c2ccccc2CCc2ccc(C(=O)NCCNC(=O)CCOCCOCCOCCOCCNC(=O)CCc3ccc4n3[B-](F)(F)[N+]3=C(c5ccc[nH]5)C=CC3=C4)cc21 [Amitriptyline-b-2-NB590] | – | – | NanoBRET Fold Response (tracer at 0.1μM, listed as amitriptyline-b-2-NB590): 1.10; NanoBRET Fold Response (tracer at 1μM, listed as amitriptyline-b-2-NB590): 0.77
5 | CN(CCC=C1c2ccccc2CCc2ccccc21)C(=O)CCOCCOCCOCCOCCNC(=O)CCc1ccc2n1[B-](F)(F)[N+]1=C(c3ccc[nH]3)C=CC1=C2 [Amitriptyline-e-2-NB590] | – | – | NanoBRET Fold Response (tracer at 1μM): 0.98
6 | COc1ccc2c(n1)c(CCNC(C)=O)cn2CCNC(=O)CCc1ccc2n1[B-](F)(F)[N+]1=C(c3ccc[nH]3)C=CC1=C2 [Azamelatonin-1-NB590] | – | – | NanoBRET Fold Response (0.1μM tracer): 2.27; NanoBRET Fold Response (1μM tracer): 0.90
7 | COc1ccc2[nH]c(-c3ccc(CNC(=O)CCOCCOCCOCCOCCNC(=O)CCc4ccc5n4[B-](F)(F)[N+]4=C(c6ccc[nH]6)C=CC4=C5)cc3)c(CCNC(C)=O)c2n1 [AzomelatoninICO9-2-NB590] | – | – | NanoBRET Fold Response (0.1μM tracer): 0.80; NanoBRET Fold Response (1μM tracer): 0.75
8 | O=C(CCOCCOCCOCCOCCNC(=O)CCc1ccc2n1[B-](F)(F)[N+]1=C(c3ccc[nH]3)C=CC1=C2)NCCCN1CCN(C2=Nc3cc(Cl)ccc3Nc3ccccc32)CC1 [Clozapine-a-2-NB590] | – | – | NanoBRET Fold Response (AVPR1A, 0.1μM tracer): 0.89; NanoBRET Fold Response (AVPR1A, 1μM tracer): 0.99
9 | CN1CCN(C2=Nc3cc(Cl)ccc3Nc3ccc(CNC(=O)CCOCCOCCOCCOCCNC(=O)CCc4ccc5n4[B-](F)(F)[N+]4=C(c6ccc[nH]6)C=CC4=C5)cc32)CC1 [Clozapine-b-2-NB590] | – | – | NanoBRET Fold Response (AVPR1A, 0.1μM tracer): 1.04; NanoBRET Fold Response (AVPR1A, 1μM tracer): 0.98
10 | CN1CCN(C2=Nc3cc(Cl)ccc3N(CC(=O)NCCOCCOCCOCCOCCNC(=O)CCc3ccc4n3[B-](F)(F)[N+]3=C(c5ccc[nH]5)C=CC3=C4)c3ccccc32)CC1 [Clozapine-c-2-NB590] | – | – | NanoBRET Fold Response (AVPR1A, 0.1μM tracer): 0.99; NanoBRET Fold Response (AVPR1A, 1μM tracer): 0.96
11 | O=C(CCOCCOCCOCCOCCNC(=O)CCc1ccc2n1[B-](F)(F)[N+]1=C(c3ccc[nH]3)C=CC1=C2)NCCCN1CCN(C2=Nc3ccccc3Oc3ccc(Cl)cc32)CC1 [Loxapine-a-2-NB590] | 1.16 | 0.90 | –
12 | COc1ccccc1N1CCN(CCCCN2C(=O)c3ccc(CNC(=O)CCOCCOCCOCCOCCNC(=O)CCc4ccc5n4[B-](F)(F)[N+]4=C(c6ccc[nH]6)C=CC4=C5)cc3C2=O)CC1 [NAN-190-2-NB590] | 0.97 | 0.96 | –
13 | COc1ccccc1N1CCN(CCCCN2C(=O)c3ccc(CNC(=O)CCOCCNC(=O)c4ccc(CNC(=O)CCc5ccc6n5[B-](F)(F)[N+]5=C(c7ccc[nH]7)C=CC5=C6)cc4)cc3C2=O)CC1 [NAN-190-3-NB590] | 0.90 | 0.75 | –
14 | O=C(CCc1ccc2n1[B-](F)(F)[N+]1=C(c3ccc[nH]3)C=CC1=C2)NCc1ccc(C(=O)NCCOCCC(=O)N[C@@H]2CC[C@@]3(O)[C@H]4Cc5ccc(O)c6c5[C@@]3(CCN4CC3CC3)[C@H]2O6)cc1 [Naltrexone-3-NB590] | 1.34 | 0.76 | –
15 | Cc1cc2c(s1)Nc1ccccc1N=C2N1CCN(CCCNC(=O)CCOCCOCCOCCOCCNC(=O)CCc2ccc3n2[B-](F)(F)[N+]2=C(c4ccc[nH]4)C=CC2=C3)CC1 [Olanzapine-a-2-NB590] | 1.11 | 1.16 | –
16 | O=C(CCc1ccc2n1[B-](F)(F)[N+]1=C(c3ccc[nH]3)C=CC1=C2)NCc1ccc(C(=O)NCCOCCOCCNCC(O)COc2cccc3ccccc23)cc1 (centres unmarked) [Propranolol-3-NB590] | – | – | NanoBRET Fold Response (AVPR1A, 0.1μM): 1.06; NanoBRET Fold Response (AVPR1A, 1μM): 0.97
17 | O=C(CCc1ccc2n1[B-](F)(F)[N+]1=C(c3ccc[nH]3)C=CC1=C2)NCCOCCOCCNC(=O)OCCOCCN1CCN(C2=Nc3ccccc3Sc3ccccc32)CC1 [Quetiapine-a-2-NB590] | 1.02 | 1.00 | –
18 | Cc1nc2n(c(=O)c1CCN1CCC(c3noc4cc(F)ccc34)CC1)CCCC2OC(=O)NCCOCCOCCOCCOCCNC(=O)CCc1ccc2n1[B-](F)(F)[N+]1=C(c3ccc[nH]3)C=CC1=C2 (centres unmarked) [Risperidone-2-NB590] | 0.90 | 0.87 | –
19 | CC(C)N(CC[C@H](c1ccccc1)c1cc(CCNC(=O)CCOCCOCCOCCOCCNC(=O)CCc2ccc3n2[B-](F)(F)[N+]2=C(c4ccc[nH]4)C=CC2=C3)ccc1O)C(C)C [Tolterodine-2-NB590] | 0.91 | 1.03 | –
20 | CC(C)N(CC[C@H](c1ccccc1)c1cc(CCNC(=O)c2ccc(CNC(=O)CCc3ccc4n3[B-](F)(F)[N+]3=C(c5ccc[nH]5)C=CC3=C4)cc2)ccc1O)C(C)C [Tolterodine-BZ-NB590] | 1.15 | 1.07 | –
21 | CCCn1c(=O)c2[nH]c(-c3ccc(OCC(=O)NCCNC(=O)CCOCCNC(=O)c4ccc(CNC(=O)CCc5ccc6n5[B-](F)(F)[N+]5=C(c7ccc[nH]7)C=CC5=C6)cc4)cc3)nc2n(CCC)c1=O [XAC-3-NB590] | 1.25 | 1.36 | –
